In ChEMBL document CHEMBL1126625, “7-Azetidinylquinolones as antibacterial agents. Synthesis and structure-activity relationships” (J Med Chem, 1993) one finds MIC data, which are given here for ten compounds.

Converted amounts (≈) assume the structure as drawn.

Common to all, as to type: functional
The test system of assay [1] is Staphylococcus epidermidis. Put plainly: Minimum inhibitory concentration (MIC) preventing growth of Staphylococcus epidermidis.
Another assay relates to Bacillus subtilis. The assay is described as follows: Minimum inhibitory concentration (MIC) preventing growth of Bacillus subtilis.
The subject of another assay is Morganella morganii. Put plainly: Minimum inhibitory concentration (MIC) preventing growth of Morganella morganii.
Another assay concerns Enterococcus faecalis. The assay is described as follows: Minimum inhibitory concentration (MIC) preventing growth of Streptococcus faecalis ATCC 10541.
A further assay concerns Bacillus cereus. The assay is described as follows: Minimum inhibitory concentration (MIC) preventing growth of Bacillus cereus.
The next assay relates to Staphylococcus aureus. The assay is described as follows: Minimum inhibitory concentration (MIC) preventing growth of […].
Another assay concerns Klebsiella pneumoniae. Put plainly: Minimum inhibitory concentration (MIC)preventing growth of Klebsiella pneumoniae.
For another assay, the system named is Escherichia coli. The assay is described as follows: Minimum inhibitory concentration (MIC)preventing growth of Escherichia coli.
Another assay relates to Pseudomonas aeruginosa. The assay is described as follows: Minimum inhibitory concentration (MIC)preventing growth of Pseudomonas aeruginosa.
In the next assay the test system is Proteus vulgaris. Put plainly: Minimum inhibitory concentration (MIC) preventing growth of Proteus vulgaris.
The subject of the next assay is Enterobacter cloacae. Put plainly: Minimum inhibitory concentration (MIC)preventing growth of Enterobacter cloacae.

The MIC is the lowest concentration found to suppress growth. A high value points to a need for much substance. As to `NC(=O)C1CN(c2c(F)cc3c(=O)c(C(=O)O)cn(C4CC4)c3c2F)C1`, the MIC came out at 0.5 µg/mL (≈ 1.38 µM) in assay [1]; 0.06 µg/mL (≈ 0.165 µM) against Bacillus subtilis; 0.25 µg/mL (≈ 0.688 µM) against Morganella morganii; 0.5 µg/mL (≈ 1.38 µM) in the assay on Enterococcus faecalis; 0.25 µg/mL (≈ 0.688 µM) in the assay with Bacillus cereus; 0.25 µg/mL (≈ 0.688 µM) against Staphylococcus aureus. The MIC worked out at 0.06 µg/mL (≈ 0.165 µM) with Klebsiella pneumoniae; 0.25 µg/mL (≈ 0.688 µM) with Escherichia coli; 4 µg/mL (≈ 11 µM) against Pseudomonas aeruginosa; 0.25 µg/mL (≈ 0.688 µM) in the assay with Proteus vulgaris; 0.25 µg/mL (≈ 0.688 µM) in the assay with Enterobacter cloacae.

On to `CCn1cc(C(=O)O)c(=O)c2cc(F)c(N3CC(C)(N)C3)c(Cl)c21`, for which the MIC in [1] was determined as 0.25 µg/mL (≈ 0.707 µM); with Bacillus subtilis, 0.06 µg/mL (≈ 0.17 µM); in the assay on Morganella morganii it was 0.06 µg/mL (≈ 0.17 µM); in the assay with Enterococcus faecalis, 1 µg/mL (≈ 2.83 µM); with Bacillus cereus, 0.25 µg/mL (≈ 0.707 µM); in the assay with Staphylococcus aureus it was 0.25 µg/mL (≈ 0.707 µM). For the same compound, the MIC in the assay with Klebsiella pneumoniae amounted to 0.03 µg/mL (≈ 0.0848 µM); with Escherichia coli it was 0.03 µg/mL (≈ 0.0848 µM); against Pseudomonas aeruginosa it was 1 µg/mL (≈ 2.83 µM); in the assay with Proteus vulgaris, 0.5 µg/mL (≈ 1.41 µM); against Enterobacter cloacae, 0.06 µg/mL (≈ 0.17 µM).

On to `O=C(O)c1cn(C2CC2)c2cc(N3CCC3)c(F)cc2c1=O`, for which the MIC in assay [1] turned out to be 0.06 µg/mL (≈ 0.198 µM); against Bacillus subtilis, 0.015 µg/mL (≈ 0.0496 µM); with Morganella morganii, 0.25 µg/mL (≈ 0.827 µM); against Enterococcus faecalis, 2 µg/mL (≈ 6.62 µM); against Bacillus cereus it was 0.06 µg/mL (≈ 0.198 µM); against Staphylococcus aureus it was 0.06 µg/mL (≈ 0.198 µM). The MIC in the assay with Klebsiella pneumoniae came out at 0.015 µg/mL (≈ 0.0496 µM); against Escherichia coli it was 0.12 µg/mL (≈ 0.397 µM); against Pseudomonas aeruginosa, 2 µg/mL (≈ 6.62 µM); in the assay with Proteus vulgaris, 0.06 µg/mL (≈ 0.198 µM); in the assay with Enterobacter cloacae it was 0.12 µg/mL (≈ 0.397 µM).

Take `CN(C)C1CN(c2nc3c(cc2F)c(=O)c(C(=O)O)cn3C2CC2)C1`: the MIC in assay [1] is 0.12 µg/mL (≈ 0.346 µM); against Bacillus subtilis it was 0.015 µg/mL (≈ 0.0433 µM); against Morganella morganii, 0.12 µg/mL (≈ 0.346 µM); against Enterococcus faecalis, 2 µg/mL (≈ 5.77 µM); against Bacillus cereus, 0.12 µg/mL (≈ 0.346 µM); against Staphylococcus aureus it was 0.25 µg/mL (≈ 0.722 µM). For the same compound, the MIC against Klebsiella pneumoniae was found to be 0.12 µg/mL (≈ 0.346 µM); with Escherichia coli, 0.06 µg/mL (≈ 0.173 µM); with Pseudomonas aeruginosa it was 2 µg/mL (≈ 5.77 µM); against Proteus vulgaris it was 0.12 µg/mL (≈ 0.346 µM); in the assay with Enterobacter cloacae, 0.12 µg/mL (≈ 0.346 µM).

Take `CCn1cc(C(=O)O)c(=O)c2cc(F)c(N3CC(C)(N)C3)nc21`: the MIC in assay [1] was 1 µg/mL (≈ 3.12 µM); against Bacillus subtilis, 0.25 µg/mL (≈ 0.78 µM); in the assay on Morganella morganii it was 0.25 µg/mL (≈ 0.78 µM); against Enterococcus faecalis, 2 µg/mL (≈ 6.24 µM); against Bacillus cereus it was 1 µg/mL (≈ 3.12 µM); in the assay with Staphylococcus aureus, 1 µg/mL (≈ 3.12 µM). Besides, the MIC turned out to be 0.12 µg/mL (≈ 0.375 µM) with Klebsiella pneumoniae; 0.25 µg/mL (≈ 0.78 µM) against Escherichia coli; 2 µg/mL (≈ 6.24 µM) with Pseudomonas aeruginosa; 1 µg/mL (≈ 3.12 µM) in the assay on Proteus vulgaris; 0.25 µg/mL (≈ 0.78 µM) in the assay on Enterobacter cloacae.

Turning to `CC1(O)CN(c2cc3c(cc2F)c(=O)c(C(=O)O)cn3C2CC2)C1`, the MIC was determined as 0.12 µg/mL (≈ 0.361 µM) in [1]; 0.06 µg/mL (≈ 0.181 µM) against Bacillus subtilis; 0.25 µg/mL (≈ 0.752 µM) with Morganella morganii; 1 µg/mL (≈ 3.01 µM) in the assay with Enterococcus faecalis; 0.12 µg/mL (≈ 0.361 µM) against Bacillus cereus; 0.12 µg/mL (≈ 0.361 µM) against Staphylococcus aureus. Besides, the MIC with Klebsiella pneumoniae worked out at 0.06 µg/mL (≈ 0.181 µM); in the assay with Escherichia coli it was 0.25 µg/mL (≈ 0.752 µM); in the assay with Pseudomonas aeruginosa it was 2 µg/mL (≈ 6.02 µM); against Proteus vulgaris, 0.12 µg/mL (≈ 0.361 µM); against Enterobacter cloacae it was 0.12 µg/mL (≈ 0.361 µM).

Take `CCC1(O)CN(c2c(F)cc3c(=O)c(C(=O)O)cn(C4CC4)c3c2F)C1`: the MIC in assay [1] was 0.25 µg/mL (≈ 0.686 µM); in the assay with Bacillus subtilis it was 0.06 µg/mL (≈ 0.165 µM); against Morganella morganii, 0.5 µg/mL (≈ 1.37 µM); in the assay with Enterococcus faecalis, 1 µg/mL (≈ 2.74 µM); in the assay on Bacillus cereus, 0.5 µg/mL (≈ 1.37 µM); in the assay with Staphylococcus aureus, 0.5 µg/mL (≈ 1.37 µM). In addition, the MIC in the assay on Klebsiella pneumoniae is 0.12 µg/mL (≈ 0.329 µM); against Escherichia coli, 0.25 µg/mL (≈ 0.686 µM); in the assay on Pseudomonas aeruginosa, 2 µg/mL (≈ 5.49 µM); against Proteus vulgaris, 0.25 µg/mL (≈ 0.686 µM); in the assay with Enterobacter cloacae, 0.5 µg/mL (≈ 1.37 µM).

Regarding `CC1(N)CN(c2c(F)cc3c(=O)c(C(=O)O)cn(CCF)c3c2Cl)C1`, the MIC in [1] is 0.12 µg/mL (≈ 0.323 µM); against Bacillus subtilis, 0.06 µg/mL (≈ 0.161 µM); against Morganella morganii, 0.015 µg/mL (≈ 0.0403 µM); against Enterococcus faecalis it was 1 µg/mL (≈ 2.69 µM); against Bacillus cereus, 0.5 µg/mL (≈ 1.34 µM); in the assay with Staphylococcus aureus, 0.25 µg/mL (≈ 0.672 µM). The MIC against Klebsiella pneumoniae stood at 0.015 µg/mL (≈ 0.0403 µM); with Escherichia coli it was 0.06 µg/mL (≈ 0.161 µM); in the assay on Pseudomonas aeruginosa it was 1 µg/mL (≈ 2.69 µM); with Proteus vulgaris it was 1 µg/mL (≈ 2.69 µM); in the assay on Enterobacter cloacae it was 0.015 µg/mL (≈ 0.0403 µM).

In the case of `CC1(N)CN(c2c(F)cc3c(=O)c(C(=O)O)cn(C(C)(C)C)c3c2F)C1`, the MIC in assay [1] was determined as 0.5 µg/mL (≈ 1.37 µM); in the assay on Bacillus subtilis, 0.12 µg/mL (≈ 0.328 µM); against Morganella morganii it was 0.5 µg/mL (≈ 1.37 µM); in the assay on Enterococcus faecalis it was 2 µg/mL (≈ 5.47 µM); against Bacillus cereus, 0.5 µg/mL (≈ 1.37 µM); against Staphylococcus aureus, 0.5 µg/mL (≈ 1.37 µM). Moreover, the MIC in the assay with Klebsiella pneumoniae worked out at 0.06 µg/mL (≈ 0.164 µM); with Escherichia coli it was 0.25 µg/mL (≈ 0.684 µM); against Pseudomonas aeruginosa it was 2 µg/mL (≈ 5.47 µM); against Proteus vulgaris, 1 µg/mL (≈ 2.74 µM); in the assay with Enterobacter cloacae it was 0.25 µg/mL (≈ 0.684 µM).

For the compound `CC(=O)CN(C)C1(C)CN(c2cc3c(cc2F)c(=O)c(C(=O)O)cn3C2CC2)C1`, the MIC in assay [1] is 0.25 µg/mL (≈ 0.623 µM); in the assay on Bacillus subtilis, 0.06 µg/mL (≈ 0.149 µM); against Morganella morganii, 0.5 µg/mL (≈ 1.25 µM); against Enterococcus faecalis, 2 µg/mL (≈ 4.98 µM); against Bacillus cereus, 0.25 µg/mL (≈ 0.623 µM); against Staphylococcus aureus, 0.25 µg/mL (≈ 0.623 µM). Moreover, the minimum inhibitory concentration (MIC) came to 0.015 µg/mL (≈ 0.0374 µM) with Klebsiella pneumoniae; 0.25 µg/mL (≈ 0.623 µM) with Escherichia coli; 4 µg/mL (≈ 9.96 µM) in the assay with Pseudomonas aeruginosa; 0.5 µg/mL (≈ 1.25 µM) in the assay with Proteus vulgaris; 0.25 µg/mL (≈ 0.623 µM) with Enterobacter cloacae.
